Test results taken from paper PMC9841397 (2023).

System: CMP-D-C3 (C3, ΔP1a) (RNA, riboswitch) GGAGCGUUACGUCCGCCCACGGCUCUUUAAAAACAAAAGGA
Test: ITC
Conditions: 100 mM K+, 20 mM Mg2+; 50 mM K-MOPS pH 7.5, 25 °C

NC(=O)c1ccc[n+]([C@@H]2O[C@H](COP(=O)(O)O)[C@@H](O)[C@H]2O)c1
Kd: 18.3 ± 1.2 µM
